Tested on: CK enzyme expressed in the tumor
Assay: In vivo CEST imaging of creatine kinase expression in tumor after tail vein injection of PCr
Conditions: 60 minutes post infusion (tail vein injection of PCr) vs base line CEST map, FIG. 3
Description: In certain embodiments, the radio frequency (RF) pulse can be provided at different frequency offsets. In certain embodiments, to detect the conversion of phosphocreatine to creatine, an RF pulse was applied at a frequency offset of about 1.8 ppm for a period of about 1 to about 3 seconds.
“b” is the base line CEST map from the same slice. “c” is a CEST map of the same slice at 60 minutes following tail vein injection of PCr.

CN(CC(=O)O)C(=N)NP(=O)(O)O [PCr, phosphocreatine]
increase in CEST contrast: about 11%

Reference: US20170184695A1, “IMAGING OF CREATINE KINASE ENZYME EXPRESSION IN CANCEROUS TISSUES” (Sidra Medical and Research Center, priority 2014, published 2017)
